System: PC-3 cells
Assay: MTT assay in PC-3 cells, 24 hr incubation
Format: cell-based
Conditions: Homo sapiens, NCs of similar sizes (~100 nm)
Protocol: Characterization and Evaluation of Ptxl-PLA NC: NC sizes were characterized by a ZetaPALS dynamic light scattering detector (Brookhaven Instruments, Holtsville, N.Y., USA) or by SEM. The resulting NCs were purified by ultrafiltration; their in vitro toxicities were then evaluated using MTT assay in PC-3 cells (24 hr incubation at 37 C). To determine the release kinetics of Ptxl-PLA, a PBS solution of NCs was equally divided into several portions and then incubated at 37 C. At scheduled time, the release study was terminated. DMF solution was added to dissolve all precipitation. All the samples were then dried, re-dissolved in DCM and reacted with Bu4NBH4 for 1.5 hours. A drop of acetic acid was added into the solution. The solution was stirred for 20 min before the solvent was evaporated. The residual solid was reconstituted in acetonitrile for RP HPLC analysis (Curosil, 250×4.6 mm, 5μ; Phenomenex, Torrence, Calif., USA).
PC-3 cells were plated in a 96-well plate for 24 h (10,000 cells per well). On the day of experiments, cells were washed with prewarmed PBS and different concentration of fresh prepared NCs (prepared in 1×PBS) was added. The control cells were incubated with medium. […] The resulting crystals were dissolved and final cell viability was assessed colorimetrically by microplate reader at 655 nm. […]

- IC50: 87 nM
Compound: CC(=O)O[C@H]1C(=O)[C@@]2(C)[C@H]([C@H](OC(=O)c3ccccc3)[C@]3(O)C[C@H](OC(=O)[C@H](O)[C@@H](NC(=O)c4ccccc4)c4ccccc4)C(C)=C1C3(C)C)[C@]1(OC(C)=O)CO[C@@H]1C[C@@H]2O [Ptxl, paclitaxel]
